Experimental data from paper PMC11993615, “Design, synthesis and optimization of TarO inhibitors as multifunctional antibiotics against Methicillin-resistant Staphylococcus aureus” (npj Antimicrobials and Resistance, 2025).

Experiments:
TarO = TarO (Staphylococcus aureus, UniProt Q2G060); type: cell-based; details: for TarO inhibitory activity (in words): SAR discussion; for IC50: relative inhibition rate against the wild-type strain, OD600 at 20 h, n.a. = IC50 cannot be calculated within the test range
USA300 LAC [1] = test: Checkerboard MIC assay with oxacillin; type: cell-based, Staphylococcus aureus; details: for FICI / Sensitization fold / Minimum sensitization concentration: USA300 LAC/oxacillin; for Minimum sensitization concentration: test range 0.03–32 μg/mL
Method: (§1) In the checkerboard assay, concentrations of antibiotics, oxacillin and imipenem, and TarO inhibitors were simultaneously varied across columns and the rows, respectively. […] The range of each compound chosen for the checkerboard assay was according to their MIC value. […] For each clear well observed on the checkerboard MIC plate, the fractional inhibitory concentration index (FICI) was calculated as follows: FICI = FIC (inhibitor) + FIC (antibiotic) = MIC inhibitor in combination/ MIC inhibitor alone + MIC antibiotic in combination/MIC antibiotic alone. FIC = Fractional Inhibitory Concentration. A FICI value of < 0.5 indicates synergy, a value between 0.5 and 2 indicates additivity or indifference, and a value > 2 indicates antagonism.

USA400 MW2 [2] = test: Checkerboard MIC assay with oxacillin; type: cell-based, Staphylococcus aureus
Method: as §1

[3] = Cytotoxicity assay (Sulforhodamine B); type: cell-based; details: human
Method: The cytotoxicity was detected by Sulforhodamine B method. The human pancreatic cancer cell line Capan-1, human colon cancer cell line HCT-116 and human lung adenocarcinoma cell line NCI-H1373 were purchased from American Type Culture Collection (ATCC; Manassas, VA) and inoculated into 96-well plates in triplicate. The cells were treated with different concentrations of compounds in humidified incubator containing 5% CO2 for 72 h when they reached 70%-80% confluence. Vincristine was added as a positive control. Then, SRB staining agent was added and microplate analyzer was used to read the absorbance at 450 nm wavelength. The cytotoxicity of each compound is expressed as the concentration of the compound that reduces cell viability to 50% (IC50). The optical density (OD) at a wavelength of 450 nm was measured using an SpectraMax 190 Microplate Reader (Molecular Devices; USA). The IC50 value was calculated by the Logit method using Graphpad Prism 9.1.

[4] = Preliminary liver microsomal stability testing; type: in vitro ADME, Mouse
Method: 6. Supplementary Ta b l e 3: Preliminary liver microsomal stability testing of Ta r O
Compounds Species T1/2 Clint In Vitro MF […]
a MF: metabolic bioavailability.
Microsomes in 0.1 M TRIS buffer pH 7.4 (final concentration 0.33 mg/mL), co- factor MgCl2 (final concentration 5 mM) and tested compound (final concentration 0.1 μM, co-solvent 0.01% DMSO and 0.005% Bovin serum albumin BSA) were incubated at 37°C for 10 min. The reaction was started by the addition of NADPH (final concentration 1 mM). Aliquots were sampled at 0, 5, 15, 30 and 60 min respectively and methanol (cold in wet ice) was added to terminate the reaction.
After centrifugation (4000rpm,5 min), samples were then analyzed by LC- MS/MS.

HS663 [5] = test: Checkerboard MIC assay with imipenem; type: cell-based, Staphylococcus aureus
Method: as §1

USA300 LAC [6] = test: MIC determination, broth microdilution; details: Staphylococcus aureus
HS663 [7] = test: MIC determination, broth microdilution; details: Staphylococcus aureus
USA400 MW2 [8] = test: MIC determination, broth microdilution; details: Staphylococcus aureus
[9] = tested on: S.aureus USA300 LAC biofilm; test: Static biofilm inhibition assay (crystal violet); type: cell-based, Staphylococcus aureus
[10] = at maximum sensitization concentration
[11] = at minimum sensitization concentration
[12] = HS663/imipenem, at maximum sensitization concentration
[13] = HS663/imipenem, at minimum sensitization concentration
[14] = HS663/imipenem, test range 0.03–32 μg/mL
[15] = USA400 MW2/oxacillin, at maximum sensitization concentration
[16] = USA400 MW2/oxacillin, at minimum sensitization concentration
[17] = USA400 MW2/oxacillin, test range 0.03–32 μg/mL

With `C[C@H]1[C@@H](c2cc(C(F)(F)F)cc(C(F)(F)F)c2)OC(=O)N1C(=O)N1CC(c2cccc3ccccc23)C1` [Compound 6] the “TarO inhibitory activity (in words)” value (TarO) was “loss of activity”.
In the case of `C[C@H]1[C@@H](c2cccc(C(F)(F)F)c2)OC(=O)N1C(=O)NCc1cncc2ccccc12` [Tarocin A2, reference compound], the IC50 (TarO) is reported as 24.2 µM.
Compound `C[C@H]1[C@@H](c2cc(F)cc(C(F)(F)F)c2)OC(=O)N1C(=O)CCn1ccc(=O)c2ccccc21` [Compound 17c] has an IC50 (TarO) of 27.8 µM.
With `C[C@H]1[C@@H](c2cc(C(F)(F)F)cc(C(F)(F)F)c2)OC(=O)N1C(=O)CCn1ccc(=O)c2ccccc21` [Compound 17a] the IC50 (TarO) was 4.08 µM, the FICI (USA300 LAC [1]; [10]) was < 0.13 and the Sensitization fold (USA300 LAC [1]; [10]) was 1024. The FICI (USA300 LAC [1]; [11]) was < 0.15, the Sensitization fold (USA300 LAC [1]; [11]) was 8 and the Minimum sensitization concentration (USA300 LAC [1]) was 4 µg/mL.
With `C[C@H]1[C@@H](c2cc(C(F)(F)F)cc(C(F)(F)F)c2)OC(=O)N1C(=O)SCc1cccc2ccccc12` [Compound 2] the “TarO inhibitory activity (in words)” value (TarO) was “potent TarO inhibitory activity”, the IC50 (TarO) was 0.0974 µM and the FICI (USA300 LAC [1]; [10]) was < 0.04. For the same compound, the Sensitization fold (USA300 LAC [1]; [10]) was 32, the Sensitization fold (USA300 LAC [1]; [11]) was 8 and the Minimum sensitization concentration (USA300 LAC [1]) was 0.06 µg/mL.
In the case of `C[C@H]1[C@@H](c2cc(C(F)(F)F)cc(C(F)(F)F)c2)OC(=O)N1C(=O)CCc1cccc2c1OCCC2=O` [Compound 14], the IC50 (TarO) is reported as 4.04 µM, the FICI (USA300 LAC [1]; [10]) is reported as < 0.08 and the Sensitization fold (USA300 LAC [1]; [10]) is reported as 16. The Sensitization fold (USA300 LAC [1]; [11]) was 8 and the Minimum sensitization concentration (USA300 LAC [1]) was 0.25 µg/mL.
With tunicamycin [reference compound] the “induction of vraXpro-lux expression” value (TarO; MRSA USA300 LAC strain, exponential growth phase) was “concentration-dependent manner” and the “bacterial growth density (OD600)” value (TarO; post-exponential growth phase) was “effectively reduced the bacterial growth density”.
In the case of `COc1cc(C(F)(F)F)cc([C@H]2OC(=O)N(C(=O)CCn3ccc(=O)c4ccccc43)[C@H]2C)n1` [Compound 17b], the IC50 (TarO) is reported as 22.4 µM.
In the case of `C[C@H]1[C@@H](c2cc(C(F)(F)F)cc(C(F)(F)F)c2)OC(=O)N1C(=O)CCN1CCOc2ccccc21` [Compound 11], the IC50 (TarO) is reported as 1.99 µM, the FICI (USA300 LAC [1]; [10]) is reported as < 0.07 and the Sensitization fold (USA300 LAC [1]; [10]) is reported as 16. It also gave a Sensitization fold (USA300 LAC [1]; [11]) of 4 and a Minimum sensitization concentration (USA300 LAC [1]) of 0.03 µg/mL.
With `Cc1onc(-c2ccccc2)c1C(=O)N[C@@H]1C(=O)N2[C@@H]1SC(C)(C)[C@@H]2C(=O)O` [oxacillin, reference compound] the MIC (USA300 LAC [1]; Staphylococcus aureus, oxacillin used alone, USA300 LAC, read-out: MIC of β-lactam, Individual) was 64 µg/mL, the “MIC of β-lactam, Individual” value (USA300 LAC [1]; oxacillin used alone, USA300 LAC) was 64 µg/mL and the MIC (USA400 MW2 [2]; Staphylococcus aureus, oxacillin used alone, USA400 MW2, read-out: MIC of β-lactam, Individual) was 16 µg/mL. The “MIC of β-lactam, Individual” value (USA400 MW2 [2]; oxacillin used alone, USA400 MW2) was 16 µg/mL.
With `C[C@H]1[C@@H](c2cc(C(F)(F)F)cc(C(F)(F)F)c2)OC(=O)N1C(=O)CCN1CCS(=O)(=O)CC1` [Compound 19] the “TarO inhibitory activity (in words)” value (TarO) was “lost its activity”.
For `C[C@H]1[C@@H](c2cc(C(F)(F)F)cc(C(F)(F)F)c2)OC(=O)N1C(=O)CCN1CCCc2ccccc21` [Compound 10], the IC50 at 72 h ([3]; Capan-1 cells (human pancreatic cancer cell line), Capan-1, 72 h) was > 20 µM, the IC50 at 72 h ([3]; HCT-116 cells (human colon cancer cell line), HCT-116, 72 h) was > 20 µM and the IC50 at 72 h ([3]; NCI-H1373 cells (human lung adenocarcinoma cell line), NCI-H1373, 72 h) was > 20 µM. For the same compound, the IC50 (TarO) was 0.14 µM, the “Clint In Vitro” value ([4]; Mouse liver microsomes) was 1779 mL/min/gprot and the “Comments (metabolic stability)” value ([4]; Mouse liver microsomes) was “poor”. For the same compound, the half-life at 0.1 μM ([4]; pH 7.4, Mouse liver microsomes 0.33 mg/mL, 0.1 μM compound) was 1.18 min, the FICI (HS663 [5]; [12]) was <0.02 and the Sensitization fold (HS663 [5]; [12]) was 64. The FICI (HS663 [5]; [13]) was <0.13, the Sensitization fold (HS663 [5]; [13]) was 8 and the Maximum sensitization concentration (HS663 [5]; [14]) was 0.25 µg/mL. For the same compound, the Minimum sensitization concentration (HS663 [5]; [14]) was 0.03 µg/mL, the “MIC of β-lactam, combined” value (HS663 [5]; imipenem with TarO inhibitor at maximum sensitization concentration, HS663) was 1 µg/mL and the “MIC of β-lactam, combined” value (HS663 [5]; imipenem with TarO inhibitor at minimum sensitization concentration, HS663) was 8 µg/mL. The MIC (USA300 LAC [6]) was > 256 µg/mL, the FICI (USA300 LAC [1]; [10]) was <0.07 and the Sensitization fold (USA300 LAC [1]; [10]) was 16. For the same compound, the FICI (USA300 LAC [1]; [11]) was <0.13, the Sensitization fold (USA300 LAC [1]; [11]) was 8 and the Minimum sensitization concentration (USA300 LAC [1]) was 0.03 µg/mL. The FICI (USA400 MW2 [2]; [15]) was <0.07, the Sensitization fold (USA400 MW2 [2]; [15]) was 16 and the FICI (USA400 MW2 [2]; [16]) was <0.13. The Sensitization fold (USA400 MW2 [2]; [16]) was 8, the Maximum sensitization concentration (USA400 MW2 [2]; [17]) was 0.12 µg/mL and the Minimum sensitization concentration (USA400 MW2 [2]; [17]) was 0.03 µg/mL. The “MIC of β-lactam, combined” value (USA400 MW2 [2]; oxacillin with TarO inhibitor at maximum sensitization concentration, USA400 MW2) was 1 µg/mL, the “MIC of β-lactam, combined” value (USA400 MW2 [2]; oxacillin with TarO inhibitor at minimum sensitization concentration, USA400 MW2) was 2 µg/mL and the MIC (HS663 [7]) was > 256 µg/mL. The MIC (USA400 MW2 [8]) was > 256 µg/mL, the “inhibition of biofilm formation” value ([9]; 0.125 μg/mL) was “near a half” and the inhibition at 0.5 µg/mL ([9]; Staphylococcus aureus, USA300, read-out: inhibition of biofilm formation) was > 90%.
With `C[C@H]1[C@@H](c2cc(C(F)(F)F)cc(C(F)(F)F)c2)OC(=O)N1C(=O)CCC1CCCCC1` [Compound 8] the “TarO inhibitory activity (in words)” value (TarO) was “inactive”.
For `C[C@H]1[C@@H](c2cc(C(F)(F)F)cc(C(F)(F)F)c2)OC(=O)N1C(=S)NCc1cccc2ccccc12` [Compound 5], the IC50 (TarO) was 8.98 µM, the FICI (USA300 LAC [1]; [10]) was < 0.13 and the Sensitization fold (USA300 LAC [1]; [10]) was 8. For the same compound, the Sensitization fold (USA300 LAC [1]; [11]) was 8 and the Minimum sensitization concentration (USA300 LAC [1]) was 0.25 µg/mL.
`C[C@H]1[C@@H](c2cccc(C(F)(F)F)c2)OC(=O)N1C(=O)CCn1ccc(=O)c2ccccc21` [Compound 17d] gave an IC50 (TarO) of 30.2 µM.
In the case of `C[C@H]1[C@@H](c2cc(C(F)(F)F)cc(C(F)(F)F)c2)OC(=O)N1C(=O)OCc1cccc2ccccc12` [Compound 1], the IC50 (TarO) is reported as 0.161 µM, the FICI (USA300 LAC [1]; [10]) is reported as < 0.07 and the Sensitization fold (USA300 LAC [1]; [10]) is reported as 16. It also gave a Sensitization fold (USA300 LAC [1]; [11]) of 8 and a Minimum sensitization concentration (USA300 LAC [1]) of 0.06 µg/mL.
For `C[C@@H](O)[C@H]1C(=O)N2C(C(=O)O)=C(SCCN=CN)C[C@H]12` [imipenem, reference compound], the MIC (HS663 [5]; Staphylococcus aureus, imipenem used alone, HS663, read-out: MIC of β-lactam, Individual) was 64 µg/mL and the “MIC of β-lactam, Individual” value (HS663 [5]; imipenem used alone, HS663) was 64 µg/mL.
Work on `C[C@H]1[C@@H](c2cc(C(F)(F)F)cc(C(F)(F)F)c2)OC(=O)N1C(=O)CCc1cccc2c1OCC/C2=N\O` [Compound 23] yielded an IC50 (TarO) of 7.54 µM.
`C[C@H]1[C@@H](c2cc(C(F)(F)F)cc(C(F)(F)F)c2)OC(=O)N1C(=O)CNc1cccc2ccccc12` [Compound 7] gave an IC50 (TarO) of 7.19 µM.
In the case of `C[C@H]1[C@@H](c2cc(C(F)(F)F)cc(C(F)(F)F)c2)OC(=O)N1C(=O)CCN1CCC(=O)c2ccccc21` [Compound 12], the IC50 (TarO) is reported as 5.05 µM.
With `C[C@H]1[C@@H](c2cc(C(F)(F)F)cc(C(F)(F)F)c2)OC(=O)N1C(=O)CCN1CCS(=O)(=O)c2ccccc21` [Compound 9] the “TarO inhibitory activity (in words)” value (TarO) was “potent inhibition activity comparable to Tarocin A” and the IC50 (TarO) was 6.32 µM.
